Test results published in ChEMBL document CHEMBL2040728, “New substituted 4H-chromenes as anticancer agents” (Bioorg Med Chem Lett, 2012).

What was measured:
LNCaP = assay: Antiproliferative activity against human LNCAP cells after 96 hrs by SRB assay; type: functional, cell-based
[1] = Antiproliferative activity against human paclitaxel-resistant PC3-TxR cells after 96 hrs by SRB assay; type: functional, cell-based
PC-3 [2] = assay: Antiproliferative activity against human PC3 cells after 96 hrs by SRB assay; type: functional, cell-based; settings: PC-3, 96 h
[3] = Antiproliferative activity against human WM164 cells after 48 hrs by SRB assay; type: functional, cell-based; settings: WM164, 48 h
A-375 = assay: Antiproliferative activity against human A375 cells after 48 hrs by SRB assay; type: functional, cell-based; settings: A-375, 48 h
[4] = Antiproliferative activity against human U87 cells after 5 days by MTT assay; type: functional, cell-based, U-87MG ATCC; settings: U-87 MG, 120 h
[5] = Antiproliferative activity against human LN18 cells after 5 days by MTT assay; type: functional, cell-based; settings: LN-18, 120 h
[6] = Antiproliferative activity against human A172 cells after 5 days by MTT assay; type: functional, cell-based; settings: A 172, 120 h
[7] = Cytotoxicity against mouse primary astrocytes after 5 days by MTT assay; type: cell-based; settings: Astrocyte, 120 h
CCRF-CEM = assay: Cytotoxicity against human CCRF-CEM cells assessed as growth at 10 uM; type: functional; settings: read-out: Activity
K562 = assay: Cytotoxicity against human K562 cells assessed as growth at 10 uM; type: functional; settings: read-out: Activity
HL-60(TB) = assay: Cytotoxicity against human HL-60(TB) cells assessed as growth at 10 uM; type: functional; settings: read-out: Activity
MOLT-4 = assay: Cytotoxicity against human MOLT4 cells assessed as growth at 10 uM; type: functional; settings: read-out: Activity
RPMI-8226 = assay: Cytotoxicity against human RPMI8226 cells assessed as growth at 10 uM; type: functional; settings: read-out: Activity
A549 = assay: Cytotoxicity against human A549 cells assessed as growth at 10 uM; type: functional; settings: read-out: Activity
EKVX = assay: Cytotoxicity against human EKVX cells assessed as growth at 10 uM; type: functional; settings: read-out: Activity
HOP-62 = assay: Cytotoxicity against human HOP62 cells assessed as growth at 10 uM; type: functional; settings: read-out: Activity
HOP-92 = assay: Cytotoxicity against human HOP92 cells assessed as growth at 10 uM; type: functional; settings: read-out: Activity
NCI-H226 = assay: Cytotoxicity against human NCI-H226 cells assessed as growth at 10 uM; type: functional; settings: read-out: Activity
NCI-H23 = assay: Cytotoxicity against human NCI-H23 cells assessed as growth at 10 uM; type: functional; settings: read-out: Activity
NCI-H322M = assay: Cytotoxicity against human NCI-H322M cells assessed as growth at 10 uM; type: functional; settings: read-out: Activity
NCI-H460 = assay: Cytotoxicity against human NCI-H460 cells assessed as growth at 10 uM; type: functional; settings: read-out: Activity
NCI-H522 = assay: Cytotoxicity against human NCI-H522 cells assessed as growth at 10 uM; type: functional; settings: read-out: Activity
COLO 205 = assay: Cytotoxicity against human COLO205 cells assessed as growth at 10 uM; type: functional; settings: read-out: Activity
HCC 2998 = assay: Cytotoxicity against human HCC2998 cells assessed as growth at 10 uM; type: functional; settings: read-out: Activity
HCT-116 = assay: Cytotoxicity against human HCT116 cells assessed as growth at 10 uM; type: functional; settings: read-out: Activity
HCT-15 = assay: Cytotoxicity against human HCT15 cells assessed as growth at 10 uM; type: functional; settings: read-out: Activity
HT-29 = assay: Cytotoxicity against human HT-29 cells assessed as growth at 10 uM; type: functional; settings: read-out: Activity
KM12 = assay: Cytotoxicity against human KM12 cells assessed as growth at 10 uM; type: functional; settings: read-out: Activity
SW-620 = assay: Cytotoxicity against human SW620 cells assessed as growth at 10 uM; type: functional; settings: read-out: Activity
SF-268 = assay: Cytotoxicity against human SF268 cells assessed as growth at 10 uM; type: functional; settings: read-out: Activity
SF-295 = assay: Cytotoxicity against human SF295 cells assessed as growth at 10 uM; type: functional; settings: read-out: Activity
SF-539 = assay: Cytotoxicity against human SF539 cells assessed as growth at 10 uM; type: functional; settings: read-out: Activity
SNB-19 = assay: Cytotoxicity against human SNB19 cells assessed as growth at 10 uM; type: functional; settings: read-out: Activity
SNB-75 = assay: Cytotoxicity against human SNB75 cells assessed as growth at 10 uM; type: functional; settings: read-out: Activity
U-251 = assay: Cytotoxicity against human U251 cells assessed as growth at 10 uM; type: functional; settings: read-out: Activity
LOX IMVI = assay: Cytotoxicity against human LOXIMVI cells assessed as growth at 10 uM; type: functional; settings: read-out: Activity
Malme-3M = assay: Cytotoxicity against human MALME-3M cells assessed as growth at 10 uM; type: functional; settings: read-out: Activity
M14 = assay: Cytotoxicity against human M14 cells assessed as growth at 10 uM; type: functional; settings: read-out: Activity
MDA-MB-435 = assay: Cytotoxicity against human MDA-MB-435 cells assessed as growth at 10 uM; type: functional; settings: read-out: Activity
SK-MEL-2 = assay: Cytotoxicity against human SK-MEL-2 cells assessed as growth at 10 uM; type: functional; settings: read-out: Activity
SK-MEL-28 = assay: Cytotoxicity against human SK-MEL-28 cells assessed as growth at 10 uM; type: functional; settings: read-out: Activity
SK-MEL-5 = assay: Cytotoxicity against human SK-MEL-5 cells assessed as growth at 10 uM; type: functional; settings: read-out: Activity
UACC-257 = assay: Cytotoxicity against human UACC257 cells assessed as growth at 10 uM; type: functional; settings: read-out: Activity
UACC-62 = assay: Cytotoxicity against human UACC62 cells assessed as growth at 10 uM; type: functional; settings: read-out: Activity
IGROV-1 = assay: Cytotoxicity against human IGROV1 cells assessed as growth at 10 uM; type: functional; settings: read-out: Activity
OVCAR-3 = assay: Cytotoxicity against human OVCAR3 cells assessed as growth at 10 uM; type: functional; settings: read-out: Activity
OVCAR-4 = assay: Cytotoxicity against human OVCAR4 cells assessed as growth at 10 uM; type: functional; settings: read-out: Activity
OVCAR-5 = assay: Cytotoxicity against human OVCAR5 cells assessed as growth at 10 uM; type: functional; settings: read-out: Activity
OVCAR-8 = assay: Cytotoxicity against human OVCAR8 cells assessed as growth at 10 uM; type: functional; settings: read-out: Activity
NCI/ADR-RES = assay: Cytotoxicity against human NCI/ADR-RES cells assessed as growth at 10 uM; type: functional; settings: read-out: Activity
SK-OV-3 = assay: Cytotoxicity against human SKOV3 cells assessed as growth at 10 uM; type: functional; settings: read-out: Activity
786-0 = assay: Cytotoxicity against human 786-0 cells assessed as growth at 10 uM; type: functional; settings: read-out: Activity
ACHN = assay: Cytotoxicity against human ACHN cells assessed as growth at 10 uM; type: functional; settings: read-out: Activity
CAKI-1 = assay: Cytotoxicity against human Caki1 cells assessed as growth at 10 uM; type: functional; settings: read-out: Activity
RXF 393 = assay: Cytotoxicity against human RXF393 cells assessed as growth at 10 uM; type: functional; settings: read-out: Activity
SN12C = assay: Cytotoxicity against human SN12C cells assessed as growth at 10 uM; type: functional; settings: read-out: Activity
TK-10 = assay: Cytotoxicity against human TK10 cells assessed as growth at 10 uM; type: functional; settings: read-out: Activity
UO-31 = assay: Cytotoxicity against human UO31 cells assessed as growth at 10 uM; type: functional; settings: read-out: Activity
PC-3 [8] = assay: Cytotoxicity against human PC3 cells assessed as growth at 10 uM; type: functional; settings: read-out: Activity
DU-145 = assay: Cytotoxicity against human DU145 cells assessed as growth at 10 uM; type: functional; settings: read-out: Activity
MCF7 = assay: Cytotoxicity against human MCF7 cells assessed as growth at 10 uM; type: functional; settings: read-out: Activity
MDA-MB-231 = assay: Cytotoxicity against human MDA-MB-231 cells assessed as growth at 10 uM; type: functional; settings: read-out: Activity
[9] = Cytotoxicity against human Hs 578T cells assessed as growth at 10 uM; type: functional; settings: read-out: Activity
BT-549 = assay: Cytotoxicity against human BT549 cells assessed as growth at 10 uM; type: functional; settings: read-out: Activity
T47D = assay: Cytotoxicity against human T47D cells assessed as growth at 10 uM; type: functional; settings: read-out: Activity
MDA-MB-468 = assay: Cytotoxicity against human MDA-MB-468 cells assessed as growth at 10 uM; type: functional; settings: read-out: Activity

CN(C)c1ccc2c(c1)OC(N)=C(C#N)C2c1cccc2c(F)cccc12 (configuration not stated)
IC50 (LNCaP): 250 nM
IC50 [1]: 190 nM
IC50 (PC-3 [2]): 420 nM
IC50 [3]: 220 nM
IC50 (A-375): 130 nM
IC50 [4]: 62.9 nM
IC50 [5]: 80.4 nM
IC50 [6]: 20.7 nM
IC50 [7]: 9440 nM
growth at 10 µM (CCRF-CEM): 11.3%
growth at 10 µM (K562): 6.85%
growth at 10 µM (HL-60(TB)): -18.4%
growth at 10 µM (MOLT-4): 13.9%
growth at 10 µM (RPMI-8226): 20.5%
growth at 10 µM (A549): 11.5%
growth at 10 µM (EKVX): 36.7%
growth at 10 µM (HOP-62): 39.8%
growth at 10 µM (HOP-92): -2.42%
growth at 10 µM (NCI-H226): 0%
growth at 10 µM (NCI-H23): -0.47%
growth at 10 µM (NCI-H322M): 45.4%
growth at 10 µM (NCI-H460): 1.28%
growth at 10 µM (NCI-H522): -17.5%
growth at 10 µM (COLO 205): -38.1%
growth at 10 µM (HCC 2998): 7.74%
growth at 10 µM (HCT-116): -5.99%
growth at 10 µM (HCT-15): 6.89%
growth at 10 µM (HT-29): -3.8%
growth at 10 µM (KM12): -0.79%
growth at 10 µM (SW-620): 23.5%
growth at 10 µM (SF-268): 24.8%
growth at 10 µM (SF-295): 8.13%
growth at 10 µM (SF-539): -7.29%
growth at 10 µM (SNB-19): 39%
growth at 10 µM (SNB-75): 22.3%
growth at 10 µM (U-251): 6.44%
growth at 10 µM (LOX IMVI): 5.96%
growth at 10 µM (Malme-3M): 49.6%
growth at 10 µM (M14): -1.53%
growth at 10 µM (MDA-MB-435): -32.4%
growth at 10 µM (SK-MEL-2): 27.9%
growth at 10 µM (SK-MEL-28): 54.1%
growth at 10 µM (SK-MEL-5): 13.7%
growth at 10 µM (UACC-257): 51.5%
growth at 10 µM (UACC-62): 38.9%
growth at 10 µM (IGROV-1): 32.3%
growth at 10 µM (OVCAR-3): -35.4%
growth at 10 µM (OVCAR-4): 27.3%
growth at 10 µM (OVCAR-5): 27.6%
growth at 10 µM (OVCAR-8): -23.4%
growth at 10 µM (NCI/ADR-RES): -6.17%
growth at 10 µM (SK-OV-3): 5.75%
growth at 10 µM (786-0): 16.8%
growth at 10 µM (ACHN): 27.6%
growth at 10 µM (CAKI-1): 22.9%
growth at 10 µM (RXF 393): 7.11%
growth at 10 µM (SN12C): 16.4%
growth at 10 µM (TK-10): 45.8%
growth at 10 µM (UO-31): 49.4%
growth at 10 µM (PC-3 [8]): 14.4%
growth at 10 µM (DU-145): -16.5%
growth at 10 µM (MCF7): 13.3%
growth at 10 µM (MDA-MB-231): 31.9%
growth at 10 µM [9]: 19.2%
growth at 10 µM (BT-549): -12.8%
growth at 10 µM (T47D): 61.8%
growth at 10 µM (MDA-MB-468): 27.6%

CN(C)c1ccc2c(c1)OC(N)=C(C#N)C2c1ccc(F)c2ccccc12 (configuration not stated)
IC50 (LNCaP): 410 nM
IC50 [1]: 290 nM
IC50 (PC-3 [2]): 640 nM
IC50 [3]: 470 nM
IC50 (A-375): 280 nM
